In US20040142888A1, “Modulators of RabGGT and methods of use thereof” (priority 2002, published 2004):
Read-outs that look alike come from different tables or passages of the source.

What was measured:
C. elegans germline = assay: Apoptosis in the C. elegans germline (apoptotic corpses per germline arm), after compound and/or RNAi treatment; format: in vivo; settings: wild-type worms, compound 1.5 mM
Procedure: The compounds were applied to early larval and adult C. elegans hermaphrodites by mixing a concentrated DMSO solution of the compound with heat-killed OP50 bacteria in a salt solution. The bacteria were then applied to agar plates and worms of the appropriate age seeded onto the plates. Compounds 7A, 7B, 7C, 7D, 7H, 7I and 7J were applied to worms at a final concentration of 1.5 mM. and the resulting visible phenotypes analyzed. The phenotype of apoptosis in C. elegans was quantified as follows: Germ cells in the C. elegans hermaphrodite gonad progress through various stages of differentiation to become mature ova. At the pachytene stage of meiotic prophase, some germ cells undergo programmed cell death (apoptosis) as part of normal development. The apoptotic corpses resulting from this process can be visualized by high-resolution Nomarski optics and are readily distinguishable cells to the trained eye from viable germ cells by their compact, button-like appearance. Necrotic cells, which are rarer, have a less compact appearance. Apoptosis is most reliably distinguished from necrosis, however, by its requirement for the core apoptotic machinery, such as a functional caspase/ced-3 gene. Since C. elegans has symmetrical anterior and posterior gonad structures, referred to as “arms”, apoptosis is scored by visually counting the apoptotic corpses present in a 1-2 day old adult in each germline arm. Normal, untreated worms rarely contain more than 2 corpses per arm. In a treated sample, the number of worms that contain more than 2 corpses provides a very accurate indicator of the apoptotic effect of the treatment. Early larval and adult C. elegans hermaphrodites were treated with compound and the phenotype of apoptosis in the germline arm was quantified as described in Example IV. DNA encoding GGTase alpha/[…].2 (GenBank entry NM-067966) and GGTase beta/B0280.1 (GenBank entry NM 066158) was amplified from a C. elegans genomic DNA template by PCR (Takara LA Taq DNA polymerase) using oligonucleotides containing gene-specific priming sequences that were flanked by sequences encoding the T7 polymerase priming site. The gene-specific priming sequences targeted the first 5 exons of B0280.1 (product size 2 kiloBases) and the first four exons of […].2 (product size 1 kiloBases). The PCR products were analyzed by gel electrophoresis to confirm that the correct product size was obtained. RNA was transcribed from the PCR product using the MEGAscript High Yield Transcription Kit (Ambion) according to manufacturer's instructions. Directly after transcription, the RNA was annealed by heating to 68° C. for 20 minutes. The double stranded RNA (dsRNA) was checked for product quality by gel electrophoresis. The dsRNA was then ethanol-precipitated, washed once with 100% ethanol and twice with 70% ethanol and the pellet was allowed to air dry for 30 minutes. The dsRNA was re-suspended in 1× IM buffer (20 mM KPO4, 3 mM potassium citrate, 2% PEG 6000) in volume equal to the original in vitro transcription reaction, and stored at -20° C. For RNAi treatment of worms, wild type animals at the L2/L3 stage of development were collected in M9 buffer at 50 animals/μl (M9 is 0.044 M KH2PO4, 0.085 M Na2HPO4, 0.18 M NaCl and 1 mM MgSO4). 1 μl of this nematode suspension was added to 3 μl of dsRNA and incubated for 24 hours in a sealed 96 well plate at 20° C. in a humidified chamber. Animals were allowed to develop to adulthood before compound treatment and/or assay of germline apoptosis as described in Example IV. Early larval and adult C. elegans hermaphrodites were treated with compound as described in Example IV. RNAi preparation and treatment was performed as described in Example VI. The phenotype of apoptosis in the germline arm was quantified as described in Example IV. Early larval and adult C. elegans hermaphrodites were treated with compound as described in Example IV. RNAi preparation and treatment was performed as described in Example VI. […]

[1] = biological target: Farnesyl Transferase (FT) (Homo sapiens, UniProt P49354+P49356); assay: Biochemical assay for inhibition of farnesyl transferase (FT)
Procedure: Biochemical assays for inhibition of FT were performed as described by Mann et al. (1995, Drug Dev. Res. 34: 121) with the modifications described by Ding et al. (1999, J. Med. Chem., 42:5241)

[2] = test system: HCT-116 human colon tumor cells; assay: Compound-induced apoptosis in HCT-116 human colon tumor cells (microscopy for morphological markers); format: cell-based
Procedure: HCT-116 human colon tumor cells obtained from the American Type Culture Collection (ATCC) were grown in McCoy's 5A culture medium with 10% heat inactivated FBS, 1× penicillin/streptomycin, and 25 mM HEPES, in an incubator maintained at 37° C. with CO2 at 6-7% and humidity at 95%. Cells were treated with compounds using a dose range from 0.04 μM to 100 μM. After 48 hours they were examined by microscopy for signs of cell rounding, vaccuolation, and nuclear condensation. These are morphological markers associated with apoptosis, and are consistent with results obtained by performing an assay for nucleosomal DNA, or a TdT-mediated dUTP nick end labeling (TUNEL) assay.
The concentrations cited are the minimal concentration required to induce these morphological changes in 50% of the treated cells.

[3] = HCT-116, 48 h, HCT116 cells, 48 hours, minimal concentration inducing apoptotic morphological changes in 50% of treated cells, read-out: 50% APOPTOTIC
[4] = HCT-116, minimum concentration required to achieve apoptosis of 50% of the HCT116 cells (Table 7), read-out: HCT116 50% apoptosis
[5] = HCT-116, minimum concentration required to achieve apoptosis of 50% of the HCT116 cells (Table 8), read-out: HCT116 50% apoptosis

| Compound | IC50 [1] | IC90 [1] | EC50 [2, 3] | EC50 [2, 4] | EC50 [2, 5] | EC50 ([2]; HCT-116, 48 h, HCT-116 cells, 48 hours, read-out: minimum effective concentration (apoptosis in 50% of cells)) | % arms with >2 corpses (C. elegans germline) | Corpses/germline arm, mean (C. elegans germline) | Frequency: germline arms with 0 apoptotic corpses (C. elegans germline) | Frequency: germline arms with 1 apoptotic corpse (C. elegans germline) | Frequency: germline arms with 2 apoptotic corpses (C. elegans germline) | Frequency: germline arms with 3 apoptotic corpses (C. elegans germline) | Frequency: germline arms with 4 apoptotic corpses (C. elegans germline) | Frequency: germline arms with >4 apoptotic corpses (C. elegans germline) | effect on mean number of apoptotic corpses in the germline (C. elegans germline) |
| --- | --- | --- | --- | --- | --- | --- | --- | --- | --- | --- | --- | --- | --- | --- | --- |
| CCCS(=O)(=O)N1Cc2cc(C#N)ccc2N(Cc2cnc[nH]2)C[C@H]1Cc1ccccc1 [Compound 7H] | 4.1 nM | 360 nM | 370 nM | 370 nM | 370 nM | – | 29% | 1.6 | 5 | 4 | – | 3 | 2 | 0 | increasing the mean number of apoptotic corpses in the germline |
| COc1ccc(S(=O)(=O)N2Cc3cc(C#N)ccc3N(Cc3cnc[nH]3)C[C@H]2Cc2ccccc2)cc1 [Compound 7A] | 2.4 nM | 30 nM | 3700 nM | 3300 nM | 3300 nM | – | 36% | 2.0 | 1 | 4 | 2 | 3 | 0 | 1 | increasing the mean number of apoptotic corpses in the germline |
| Cn1cncc1CN1C[C@@H](Cc2ccccc2)N(S(=O)(=O)c2cccs2)Cc2cc(C#N)ccc21 [Compound 7J] | 0.8 nM | 7 nM | 2500 nM | 2500 nM | 2500 nM | – | 59% | 2.8 | 3 | 4 | 1 | 4 | 4 | 3 | increasing the mean number of apoptotic corpses in the germline |

The remaining compounds from weak to strong by IC50 [1], led by results:

| IC50 [1] | IC90 [1] | EC50 [2, 3] | EC50 [2, 4] | EC50 [2, 5] | EC50 ([2]; HCT-116, 48 h, HCT-116 cells, 48 hours, read-out: minimum effective concentration (apoptosis in 50% of cells)) | Compound | % arms with >2 corpses (C. elegans germline) | Corpses/germline arm, mean (C. elegans germline) | Frequency: germline arms with 0 apoptotic corpses (C. elegans germline) | Frequency: germline arms with 1 apoptotic corpse (C. elegans germline) | Frequency: germline arms with 2 apoptotic corpses (C. elegans germline) | Frequency: germline arms with 3 apoptotic corpses (C. elegans germline) | Frequency: germline arms with 4 apoptotic corpses (C. elegans germline) | Frequency: germline arms with >4 apoptotic corpses (C. elegans germline) | effect on mean number of apoptotic corpses in the germline (C. elegans germline) |
| --- | --- | --- | --- | --- | --- | --- | --- | --- | --- | --- | --- | --- | --- | --- | --- |
| 7.8 nM | 110 nM | 370 nM | 370 nM | 370 nM | – | N#Cc1ccc2c(c1)CN(S(=O)(=O)N1CCCCC1)[C@H](Cc1ccccc1)CN2Cc1cnc[nH]1 [Compound 7B] | 92% | 6.9 | 0 | 0 | 1 | 1 | 0 | 10 | – |
| 1.4 nM | 11 nM | 40 nM | 40 nM | 40 nM | 40 nM | COc1ccc(S(=O)(=O)N2Cc3cc(C#N)ccc3N(Cc3cncn3C)C[C@H]2Cc2ccccc2)cc1 [Compound 7I] | 33% | 2.3 | 1 | 3 | 3 | 1 | 2 | 1 | increasing the mean number of apoptotic corpses in the germline |
